Experimental data as given in patent US6395499B1, “Methods of identifying modulators of a DP prostaglandin receptor” (Merck Frosst Canada & Co., priority 1995, dated 2002).
pEC50, pKi: −log10 of the molar value. Each block holds one molecule with its values, some of them ahead of it.

What was measured:
[1] = biological target: T1, human prostaglandin D2 (DP) receptor (Homo sapiens, UniProt Q13258); assay: [3H]PGD2 specific binding assay, membranes of pcDNA3-hDP transfected COS-M6 cells; conditions: 0.87 nM [3H]PGD2, 60 min at 30° C., pH 7.0, read-out: Ki, competition for [3H]PGD2 specific binding
T1 construct: The full length coding cDNA was constructed as follows; expressed in transfected cells
T1 sequence (Q13258 1-359): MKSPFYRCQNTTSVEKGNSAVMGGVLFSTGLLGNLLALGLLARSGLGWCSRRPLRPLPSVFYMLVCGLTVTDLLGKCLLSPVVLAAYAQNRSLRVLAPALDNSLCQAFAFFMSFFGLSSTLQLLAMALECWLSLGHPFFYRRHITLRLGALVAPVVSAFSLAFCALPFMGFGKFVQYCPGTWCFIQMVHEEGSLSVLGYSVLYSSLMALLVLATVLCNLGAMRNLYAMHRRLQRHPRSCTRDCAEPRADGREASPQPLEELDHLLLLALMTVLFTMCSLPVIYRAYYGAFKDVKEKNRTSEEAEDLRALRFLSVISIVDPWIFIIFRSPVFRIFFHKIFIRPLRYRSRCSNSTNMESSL
Experimental: FIG. 3—Competition for [^3H]PGD2 specific binding to pcDNA3-hDP transfected COS-M6 membranes. [^3H]PGD2 binding assays were performed as described in Example 6. The percentage maximum [^3H]PGD2 specific binding at each competing ligand concentration was determined for PGD2 (▪), the DP receptor agonist BW245C (●), the DP antagonist BW868C (♦), PGE2 (▴), PGF2a (▾), iloprost (□) and the TP-receptor agonist U46619 (∘), over a concentration range up to 100 μM.
The recently cloned human prostaglandin D2 (DP) receptor was subcloned into the pcDNA3 plasmid (Invitrogen) and transfected into COS-M6 cells by the cationic liposome-mediated transfer of DNA using LiofectAMINE reagent (GIBCO/BRL). The cells were maintained in culture for 72 h, then harvested and membranes prepared by differential centrifugation (1000×g for 10 min, then 100,000×g for 30 min) following lysis of the cells by nitrogen cavitation. [^3H]PGD2 specific binding assays were performed in 10 mM BES adjusted to pH 7.0 with KOH and containing 1.0 mM EDTA, 10 mM MnCl2, 0.87 nM [^3H]PGD2 and […] of protein from the 100,000×g membrane fraction. Incubations were conducted for 60 min at 30° C. prior to separation of the bound and free radioligand by rapid filtration through Whatman GF/B filters presoaked at 4° C. in washing buffer (10 mM BES/KOH (pH 7.0) containing 0.01% (w/v)bovine serum albumin). The filters were washed with approximately 16 ml of washing buffer and the residual [^3H]PGD2 bound to the filter was quantified by liquid scintillation counting. Specific binding was defined as the difference between total binding and non-specific binding, determined in the presence of 1 mM PGD2.
The cloned human DP receptor was transfected into COS-M6 cells and [^3H]PGD2 binding assays were performed with membranes prepared from the transfected cells. […] The rank order of affinity for prostaglandins and related synthetic analogs at the human DP receptor was therefore: BW245C>PGD2>BW868C>PGE2>PGF2a=iloprost>U46619. This rank order of potency has been predicted for the DP receptor from previous pharmacological studies.

[2] = tested on: control HEK293 (EBNA) cells; assay: cAMP assay in control HEK293 (EBNA) cells; assay type: cell-based; conditions: 1 μM; for cAMP production in control cells: control HEK293 (EBNA) cells
Experimental: (§1) Increases in intracellular cAMP production following agonist challenge was performed in HEK293 (EBNA) cells expressing the DP receptor and control HEK293 (EBNA) cells. Cells were harvested at approximately 80% confluence by incubation in enzyme-free cell dissociation buffer (Gibco/BRL), washed once with HEPES-buffered Krebs-Ringer solution {1.25 mM MgSO4, 1.5 mM CaCl2, 5 mM KCl, 124 mM NaCl, 8 mM glucose, 1.25 mM KH2PO4, and 25 mM HEPES/KOH (pH 7.4)} and resuspended in the same buffer. The cAMP assay was performed in a final volume of 0.2 ml of HEPES-buffer Krebs-Ringer solution and 100 μM of the phosphodiesterase type IV inhibitor RO-20-1724 (Biomol), to prevent hydrolysis of cAMP. RO-20-1724 and the compounds under evaluation were added to the incubation mixture in dimethyl sulfoxide or ethanol to a final vehicle concentration 0.35% (v/v) which was kept constant in all samples. The reaction was initiated by the addition of 1.5×10^5 cells per incubation. Samples were incubated at 37° C. for 15 min and the reaction was then terminated by immersing the samples in boiling water for 3 minutes. Cell viability was always ≧96% as determined by trypan blue exclusion. Measurement of cAMP was performed by radioimmunoassay using [^125I]cAMP (Amersham International).

[3] = biological target: T1, human prostaglandin D2 (DP) receptor; assay: cAMP assay in HEK293 (EBNA) cells stably expressing the DP receptor; assay type: cell-based; conditions: for cAMP production: concentrations up to 1 μM; for pEC50: 15 min at 37° C., 100 μM RO-20-1724, read-out: EC50, increase in intracellular cAMP production
Experimental: FIG. 5—Increases in intracellular cAMP production in HEK293 (EBNA) cells stably expressing the DP receptor is shown. cAMP assays were performed as described in Example 7. The pmoles of cAMP produced per 1.5×10^5 cells at each ligand concentration was determined for PGD2 (n), the DP receptor agonist BW245C (●), the DP antagonist BW868C (♦), PGE2 (▴), PGE1 ( ? ), PGF2α (▾), iloprost (□) and the TP-receptor agonist U46619 (∘), over a concentration range up to 1 μM.
The recently cloned human prostaglandin D2 (DP) receptor was subcloned into the pCEP4 plasmid (Invitrogen) and transfected into HEK293 (EBNA) cells by the cationic liposome-mediated transfer of DNA using LipofectAMINE™ (Gibco/BRL) reagent. Cells were maintained in culture for 48 h post transfection and then trypsinized, diluted and replated in the presence 200 μg/ml hygromycin B (Calbiochem) to select for transfected cells. Cells were maintained under selection for 3 weeks to ensure a homogeneous population of cells expressing the DP receptor.
as §1

[4] = biological target: T2, DP receptor (Homo sapiens, UniProt Q13258); assay: Intracellular calcium [Ca2+]i assay in DP-HEK293 (EBNA) stable cell line; assay type: cell-based; parameters: [Ca2+]i upon ionophore challenge at end of experiment (viability check): dose or concentration left out as unconfirmed; conditions: for calcium mobilization [Ca2+]i: DP-expressing HEK293 (EBNA) cells
T2 construct: The full length coding cDNA was constructed as follows; expressed in transfected cells
T2 sequence (Q13258 1-359): T1 sequence (Q13258 1-359)
Experimental: FIG. 4—Increases in intracellular calcium [Ca^2+]i in HEK293 (EBNA) cells stably expressing the DP receptor is shown. DP-HEK293 (EBNA) cells were harvested and prepared as described in Example 8. […] At the end of each experiment cells were challenged with 1 μM ionomycin to release [Ca^2+]i followed by quenching of the [Ca^2+]i release with 1 mM EDTA.
(§2) Intracellular calcium [Ca^2+]i measurements were performed with both the DP-HEK293 (EBNA) stable cell line and control HEK293 (EBNA) cells. The cells were harvested with enzyme-free cell dissociation buffer, recovered by centrifugation at 300×g for 5 min at 22° C. and resuspended at 2×10^6 cells/ml in DMEM growth medium without G418 or hygromycin B. The cells were incubated at 37° C., 6% CO2 for 45 min with 2 μM fura-2 AM. Unincorporated fura-2 AM was removed by three washes in HBSS (1.3 mM CaCl2, 5 mM KCl, 0.3 mM KH2PO4, 0.9 mM MgCl2, 138 mM NaCl, 4 mM NaHCO3, 0.3 mM Na2HPO4, 5.6 mM D-glucose) by centrifugation at 300×g, for 5 min at 22° C. The cells were then resuspended at a final concentration of 10^6 cells/ml in HBSS. [Ca^2+]i was measured following agonist challenge of 2*10^6 fura-2 AM loaded cells using a Perkin-Elmer LS-5 spectrophotometer essentially as described (Chan et al., 1994, Journal of Pharmacology and Experimental Therapeutics 269(3): 891-896).

[5] = tested on: control HEK293 (EBNA) cells; assay: Intracellular calcium [Ca2+]i assay in control HEK293 (EBNA) cells; assay type: cell-based; conditions: 1000 nM
Experimental: as §2

- pKi [1]: ~5.73
SMILES: CCCCC[C@H](O)/C=C/[C@@H]1[C@@H](C/C=C\CCCC(=O)O)[C@H]2CO[C@@H]1C2 [U46619]

- pKi [1]: 7.00
SMILES: CCCCC[C@H](O)/C=C/[C@H]1[C@H](O)CC(=O)[C@@H]1C/C=C\CCCC(=O)O [PGE2]
- fold less cAMP in control cells than in similarly challenged DP-expressing cells [2]: 14 fold
- cAMP production in control cells [2]: 6 pmoles/1.5×10^5 cells

- pKi [1]: 8.77
- cAMP production [3]: 20 pmol cAMP/1.5×10^5 cells
SMILES: O=C(O)CCCCCCC1C(=O)N(Cc2ccccc2)C(=O)N1NCC(O)C1CCCCC1 (stereo not drawn) [BW868C]

- pKi [1]: 6.29
SMILES: CCCCC[C@H](O)/C=C/[C@@H]1[C@@H](C/C=C\CCCC(=O)O)[C@@H](O)C[C@H]1O [PGF2a]

SMILES: CCCCC[C@H](O)/C=C/[C@H]1C(=O)C[C@H](O)[C@@H]1C/C=C\CCCC(=O)O [PGD2, Prostaglandin D2]
- pKi [1]: 8.96
- fold less potent than BW245C (cAMP EC50) [3]: 10 fold
- pEC50 [3]: 8.19
- cAMP production [3]: > 140 pmol cAMP/1.5×10^5 cells
- calcium mobilization [Ca2+]i ([4]; 10 to 1000 nM): increased calcium mobilization
- calcium mobilization [Ca2+]i ([4]; concentrations below 10 nM, versus vehicle): failed to induce a response
- change in [Ca2+]i in control cells [5]: did not provoke any change

- pKi [1]: 9.05
- pEC50 [3]: 9.22
SMILES: O=C(O)CCCCCCC1C(=O)NC(=O)N1CCC(O)C1CCCCC1 (stereo not drawn) [BW245C]

SMILES: CCCCC[C@H](O)/C=C/[C@H]1[C@H](O)CC(=O)[C@@H]1CCCCCCC(=O)O [PGE1]
- fold less cAMP in control cells than in similarly challenged DP-expressing cells [2]: 14 fold
- cAMP production in control cells [2]: 6 pmoles/1.5×10^5 cells

- pKi [1]: 6.20
- pEC50 [3]: < 6.30
SMILES: CC#CCC(C)[C@H](O)/C=C/[C@@H]1[C@H]2C/C(=C/CCCC(=O)O)C[C@H]2C[C@H]1O (stereo partly drawn) [iloprost]

SMILES: C[C@H](CCC(=O)O)C[C@H](C)C[C@H](C)C(=O)/C=C(\O)[C@H](C)C[C@H](C)C/C=C/[C@@H](C)[C@@H](O)[C@@H](C)[C@@H](O)C[C@@H]1CC[C@@](C)([C@H]2CC[C@@](C)([C@@H](C)O)O2)O1 [ionomycin]
- [Ca2+]i upon ionophore challenge at end of experiment (viability check) [4]: large increase in [Ca^2+]i
